# How the values were obtained:
# Assay in all cases: in vitro antibacterial evaluation, MIC by broth dilution
# Format in all cases: cell-based
# Streptococcus sp. = settings: broth dilution, 18 hours at 35° C.
# How it was run: (§1)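 Broth dilution per NCCLS M7-A2 in Mueller-Hinton II medium, inoculum 5×10^5 CFU/mL, antibiotic range 64-0.06 μg/mL. MIC taken as lowest concentration inhibiting growth; Gram-positive panel includes recent clinical isolates resistant to methicillin, penicillin and/or vancomycin.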
# Enterococcus sp. = settings: broth dilution, 18 hours at 35° C.
# How it was run: as §1
# Staphylococcus sp. = settings: broth dilution, 18 hours at 35° C.; for MIC Staphylococcus aureus (GC 1131): strain GC 1131; for MIC Staphylococcus aureus (ATCC 29213): strain ATCC 29213; for MIC Staphylococcus aureus (GC 3051): strain GC 3051; for MIC Staphylococcus aureus (GC 3053): strain GC 3053; for MIC Staphylococcus aureus (GC 4541): strain GC 4541; for MIC Staphylococcus aureus (GC 4542): strain GC 4542; for MIC Staphylococcus aureus (GC 4544): strain GC 4544; for MIC Staphylococcus aureus (GC 4545): strain GC 4545; for MIC Staphylococcus haemolyticus (GC 4546): strain GC 4546; for MIC Coagulase Negative Staphylococcus (GC 4547): strain GC 4547; for MIC Coagulase Negative Staphylococcus (GC 4548): strain GC 4548; for MIC Coagulase Negative Staphylococcus (GC 4549): strain GC 4549; for MIC Coagulase Negative Staphylococcus (GC 4551): strain GC 4551; for MIC Coagulase Negative Staphylococcus (GC 6257): strain GC 6257
# How it was run: as §1
# Escherichia coli = settings: for MIC Escherichia coli (ATCC 25922): strain ATCC 25922, 18 hours at 35° C.; for MIC Escherichia coli (GC 4559): strain GC 4559, 18 hours at 35° C.; for MIC Escherichia coli (GC 4560): strain GC 4560, 18 hours at 35° C.
# How it was run: as §1
# [1] = Streptococcus agalactiae (GC 4564)
# [2] = Streptococcus pneumoniae (ATCC 6301)
# [3] = Streptococcus pneumoniae (GC 1894)
# [4] = Streptococcus pneumoniae (GC 4565)
# [5] = Streptococcus pyogenes (GC 4563)
# [6] = Enterococcus faecalis (ATCC 29212)
# [7] = Enterococcus faecalis (GC 2242)
# [8] = Enterococcus faecalis (GC 2691)
# [9] = Enterococcus faecalis (GC 3059)
# [10] = Enterococcus faecalis (GC 4552)
# [11] = Enterococcus faecalis (GC 4553)
# [12] = Enterococcus faecalis (GC 4554)
# [13] = Enterococcus faecalis (GC 6189)
smiles,measurement,setting,value
Cc1cc(C2OCC3OC(OC4C(CO)OC(Oc5ccc(CC6NC(=O)C(C(C)c7ccccc7)NC(=O)CNC(=O)C(CO)NC(=O)C(C(O)C7CNC(=N)N7C7OC(CO)C(O)C(O)C7O)NC(=O)C(C(O)C7CNC(=N)N7)NC6=O)cc5)C(O)C4O)C(O)C(O)C3O2)ccc1[N+](=O)[O-] (stereo not drawn) [Example 151],MIC Streptococcus agalactiae (GC 4564),Streptococcus sp.; [1],4 µg/mL
same,MIC Streptococcus pneumoniae (ATCC 6301),Streptococcus sp.; [2],1 µg/mL
same,MIC Streptococcus pneumoniae (GC 1894),Streptococcus sp.; [3],0.5 µg/mL
same,MIC Streptococcus pneumoniae (GC 4565),Streptococcus sp.; [4],1 µg/mL
same,MIC Streptococcus pyogenes (GC 4563),Streptococcus sp.; [5],2 µg/mL
same,MIC Streptococcus pneumoniae (ATCC 6301),Streptococcus sp.; strain ATCC 6301,1 µg/mL
same,MIC Streptococcus pneumoniae (GC 1894),Streptococcus sp.; strain GC 1894,0.5 µg/mL
same,MIC Streptococcus pyogenes (GC 4563),Streptococcus sp.; strain GC 4563,2 µg/mL
same,MIC Streptococcus agalactiae (GC 4564),Streptococcus sp.; strain GC 4564,4 µg/mL
same,MIC Streptococcus pneumoniae (GC 4565),Streptococcus sp.; strain GC 4565,1 µg/mL
same,MIC Enterococcus avium (GC 4558),Enterococcus sp.; Enterococcus avium (GC 4558),32 µg/mL
same,MIC Enterococcus faecalis (ATCC 29212),Enterococcus sp.; [6],32 µg/mL
same,MIC Enterococcus faecalis (GC 2242),Enterococcus sp.; [7],16 µg/mL
same,MIC Enterococcus faecalis (GC 2691),Enterococcus sp.; [8],32 µg/mL
same,MIC Enterococcus faecalis (GC 3059),Enterococcus sp.; [9],32 µg/mL
same,MIC Enterococcus faecalis (GC 4552),Enterococcus sp.; [10],32 µg/mL
same,MIC Enterococcus faecalis (GC 4553),Enterococcus sp.; [11],32 µg/mL
same,MIC Enterococcus faecalis (GC 4554),Enterococcus sp.; [12],32 µg/mL
same,MIC Enterococcus faecalis (GC 6189),Enterococcus sp.; [13],64 µg/mL
same,MIC Enterococcus faecium (GC 2243),Enterococcus sp.; Enterococcus faecium (GC 2243),32 µg/mL
same,MIC Enterococcus faecium (GC 4556),Enterococcus sp.; Enterococcus faecium (GC 4556),32 µg/mL
same,MIC Enterococcus faecium (GC 4557),Enterococcus sp.; Enterococcus faecium (GC 4557),8 µg/mL
same,MIC Enterococcus faecalis (ATCC 29212),Enterococcus sp.; strain ATCC 29212,32 µg/mL
same,MIC Enterococcus faecalis (GC 2242),Enterococcus sp.; strain GC 2242,16 µg/mL
same,MIC Enterococcus faecium (GC 2243),Enterococcus sp.; strain GC 2243,32 µg/mL
same,MIC Enterococcus faecalis (GC 2691),Enterococcus sp.; strain GC 2691,32 µg/mL
same,MIC Enterococcus faecalis (GC 3059),Enterococcus sp.; strain GC 3059,32 µg/mL
same,MIC Enterococcus faecalis (GC 4552),Enterococcus sp.; strain GC 4552,32 µg/mL
same,MIC Enterococcus faecalis (GC 4553),Enterococcus sp.; strain GC 4553,32 µg/mL
same,MIC Enterococcus faecalis (GC 4554),Enterococcus sp.; strain GC 4554,32 µg/mL
same,MIC Enterococcus faecium (GC 4556),Enterococcus sp.; strain GC 4556,32 µg/mL
same,MIC Enterococcus faecium (GC 4557),Enterococcus sp.; strain GC 4557,8 µg/mL
same,MIC Enterococcus avium (GC 4558),Enterococcus sp.; strain GC 4558,32 µg/mL
same,MIC Enterococcus faecalis (GC 6189),Enterococcus sp.; strain GC 6189,64 µg/mL
same,MIC Staphylococcus aureus (GC 1131),Staphylococcus sp.; inoculum 5×10^5 CFU/mL,8 µg/mL
same,MIC Staphylococcus aureus (ATCC 29213),Staphylococcus sp.,8 µg/mL
same,MIC Staphylococcus aureus (GC 1131),Staphylococcus sp.,8 µg/mL
same,MIC Staphylococcus aureus (GC 3051),Staphylococcus sp.,8 µg/mL
same,MIC Staphylococcus aureus (GC 3053),Staphylococcus sp.,16 µg/mL
same,MIC Staphylococcus aureus (GC 4541),Staphylococcus sp.,4 µg/mL
same,MIC Staphylococcus aureus (GC 4542),Staphylococcus sp.,8 µg/mL
same,MIC Staphylococcus aureus-SMITH (GC 4543),Staphylococcus sp.; strain GC 4543,8 µg/mL
same,MIC Staphylococcus aureus (GC 4544),Staphylococcus sp.,8 µg/mL
same,MIC Staphylococcus aureus (GC 4545),Staphylococcus sp.,4 µg/mL
same,MIC Staphylococcus haemolyticus (GC 4546),Staphylococcus sp.,2 µg/mL
same,MIC Coagulase Negative Staphylococcus (GC 4547),Staphylococcus sp.,4 µg/mL
same,MIC Coagulase Negative Staphylococcus (GC 4548),Staphylococcus sp.,4 µg/mL
same,MIC Coagulase Negative Staphylococcus (GC 4549),Staphylococcus sp.,2 µg/mL
same,MIC Coagulase Negative Staphylococcus (GC 4551),Staphylococcus sp.,8 µg/mL
same,MIC Coagulase Negative Staphylococcus (GC 6257),Staphylococcus sp.,2 µg/mL
same,MIC Staphylococcus aureus-SMITH (GC 4543),Staphylococcus sp.; strain SMITH GC 4543,8 µg/mL
same,MIC Escherichia coli (ATCC 25922),Escherichia coli,>64 µg/mL
same,MIC Escherichia coli (GC 4559),Escherichia coli,>64 µg/mL
same,MIC Escherichia coli (GC 4560),Escherichia coli,2 µg/mL
CCOc1cc(C2OCC3OC(OC4C(CO)OC(Oc5ccc(CC6NC(=O)C(C(C)c7ccccc7)NC(=O)CNC(=O)C(CO)NC(=O)C(C(O)C7CNC(=N)N7C7OC(CO)C(O)C(O)C7O)NC(=O)C(C(O)C7CNC(=N)N7)NC6=O)cc5)C(O)C4O)C(O)C(O)C3O2)ccc1OC (stereo not drawn) [Example 152],MIC Streptococcus agalactiae (GC 4564),Streptococcus sp.; [1],8 µg/mL
same,MIC Streptococcus pneumoniae (ATCC 6301),Streptococcus sp.; [2],2 µg/mL
same,MIC Streptococcus pneumoniae (GC 1894),Streptococcus sp.; [3],0.5 µg/mL
same,MIC Streptococcus pneumoniae (GC 4565),Streptococcus sp.; [4],2 µg/mL
same,MIC Streptococcus pyogenes (GC 4563),Streptococcus sp.; [5],4 µg/mL
same,MIC Streptococcus pneumoniae (ATCC 6301),Streptococcus sp.; strain ATCC 6301,2 µg/mL
same,MIC Streptococcus pneumoniae (GC 1894),Streptococcus sp.; strain GC 1894,0.5 µg/mL
same,MIC Streptococcus pyogenes (GC 4563),Streptococcus sp.; strain GC 4563,4 µg/mL
same,MIC Streptococcus agalactiae (GC 4564),Streptococcus sp.; strain GC 4564,8 µg/mL
same,MIC Streptococcus pneumoniae (GC 4565),Streptococcus sp.; strain GC 4565,2 µg/mL
same,MIC Enterococcus avium (GC 4558),Enterococcus sp.; Enterococcus avium (GC 4558),32 µg/mL
same,MIC Enterococcus faecalis (ATCC 29212),Enterococcus sp.; [6],32 µg/mL
same,MIC Enterococcus faecalis (GC 2242),Enterococcus sp.; [7],32 µg/mL
same,MIC Enterococcus faecalis (GC 2691),Enterococcus sp.; [8],32 µg/mL
same,MIC Enterococcus faecalis (GC 3059),Enterococcus sp.; [9],32 µg/mL
same,MIC Enterococcus faecalis (GC 4552),Enterococcus sp.; [10],32 µg/mL
same,MIC Enterococcus faecalis (GC 4553),Enterococcus sp.; [11],64 µg/mL
same,MIC Enterococcus faecalis (GC 4554),Enterococcus sp.; [12],32 µg/mL
same,MIC Enterococcus faecalis (GC 6189),Enterococcus sp.; [13],32 µg/mL
same,MIC Enterococcus faecium (GC 2243),Enterococcus sp.; Enterococcus faecium (GC 2243),32 µg/mL
same,MIC Enterococcus faecium (GC 4556),Enterococcus sp.; Enterococcus faecium (GC 4556),32 µg/mL
same,MIC Enterococcus faecium (GC 4557),Enterococcus sp.; Enterococcus faecium (GC 4557),16 µg/mL
same,MIC Enterococcus faecalis (ATCC 29212),Enterococcus sp.; strain ATCC 29212,32 µg/mL
same,MIC Enterococcus faecalis (GC 2242),Enterococcus sp.; strain GC 2242,32 µg/mL
same,MIC Enterococcus faecium (GC 2243),Enterococcus sp.; strain GC 2243,32 µg/mL
same,MIC Enterococcus faecalis (GC 2691),Enterococcus sp.; strain GC 2691,32 µg/mL
same,MIC Enterococcus faecalis (GC 3059),Enterococcus sp.; strain GC 3059,32 µg/mL
same,MIC Enterococcus faecalis (GC 4552),Enterococcus sp.; strain GC 4552,32 µg/mL
same,MIC Enterococcus faecalis (GC 4553),Enterococcus sp.; strain GC 4553,64 µg/mL
same,MIC Enterococcus faecalis (GC 4554),Enterococcus sp.; strain GC 4554,32 µg/mL
same,MIC Enterococcus faecium (GC 4556),Enterococcus sp.; strain GC 4556,32 µg/mL
same,MIC Enterococcus faecium (GC 4557),Enterococcus sp.; strain GC 4557,16 µg/mL
same,MIC Enterococcus avium (GC 4558),Enterococcus sp.; strain GC 4558,32 µg/mL
same,MIC Enterococcus faecalis (GC 6189),Enterococcus sp.; strain GC 6189,32 µg/mL
same,MIC Staphylococcus aureus (GC 1131),Staphylococcus sp.; inoculum 5×10^5 CFU/mL,16 µg/mL
same,MIC Staphylococcus aureus (ATCC 29213),Staphylococcus sp.,16 µg/mL
same,MIC Staphylococcus aureus (GC 1131),Staphylococcus sp.,16 µg/mL
same,MIC Staphylococcus aureus (GC 3051),Staphylococcus sp.,16 µg/mL
same,MIC Staphylococcus aureus (GC 3053),Staphylococcus sp.,32 µg/mL
same,MIC Staphylococcus aureus (GC 4541),Staphylococcus sp.,16 µg/mL
same,MIC Staphylococcus aureus (GC 4542),Staphylococcus sp.,16 µg/mL
same,MIC Staphylococcus aureus-SMITH (GC 4543),Staphylococcus sp.; strain GC 4543,8 µg/mL
same,MIC Staphylococcus aureus (GC 4544),Staphylococcus sp.,16 µg/mL
same,MIC Staphylococcus aureus (GC 4545),Staphylococcus sp.,8 µg/mL
same,MIC Staphylococcus haemolyticus (GC 4546),Staphylococcus sp.,8 µg/mL
same,MIC Coagulase Negative Staphylococcus (GC 4547),Staphylococcus sp.,8 µg/mL
same,MIC Coagulase Negative Staphylococcus (GC 4548),Staphylococcus sp.,8 µg/mL
same,MIC Coagulase Negative Staphylococcus (GC 4549),Staphylococcus sp.,8 µg/mL
same,MIC Coagulase Negative Staphylococcus (GC 4551),Staphylococcus sp.,16 µg/mL
same,MIC Coagulase Negative Staphylococcus (GC 6257),Staphylococcus sp.,8 µg/mL
same,MIC Staphylococcus aureus-SMITH (GC 4543),Staphylococcus sp.; strain SMITH GC 4543,8 µg/mL
same,MIC Escherichia coli (ATCC 25922),Escherichia coli,>64 µg/mL
same,MIC Escherichia coli (GC 4559),Escherichia coli,>64 µg/mL
same,MIC Escherichia coli (GC 4560),Escherichia coli,8 µg/mL
